This is an account of results in patent publication US20100317647A1 (priority 2009, published 2010).

human Cat S, sequence (P25774 115-331): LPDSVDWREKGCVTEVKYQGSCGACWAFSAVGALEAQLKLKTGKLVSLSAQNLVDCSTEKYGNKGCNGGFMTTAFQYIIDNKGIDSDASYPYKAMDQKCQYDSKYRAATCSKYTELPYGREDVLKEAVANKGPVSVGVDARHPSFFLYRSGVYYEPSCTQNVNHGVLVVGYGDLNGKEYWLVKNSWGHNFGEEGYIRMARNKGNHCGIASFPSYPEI

For this assay, the target named is human Cat S (Homo sapiens, UniProt P25774). The experiment in a line: Cathepsin enzyme inhibition assay (fluorogenic peptide substrate cleavage). It counts as biochemical. As to conditions: human Cat S 1 nM; substrate Z-Val-Val-Arg-AMC 20 μM; pH 6.5; fluorescence over 20 minutes. The essentials:
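Fluorogenic cleavage of Z-Val-Val-Arg-AMC (20 μM) by 1 nM enzyme in 100 mM potassium phosphate pH 6.5, 5 mM EDTA, 5 mM DTT, 0.001% Triton X-100. Reaction started with substrate; fluorescence (ex 360/em 465 nm) followed over 20 minutes. IC50 by standard methods.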
In turn, `N#CCNC(=O)[C@@H]1C[C@@H](S(=O)(=O)c2ccccc2)C[C@H]1C(=O)N1CCOCC1` [Example 1, (1R,2R,4R)-4-Benzenesulfonyl-2-(morpholine-4-carbonyl)-cyclopentanecarboxylic acid cyanomethyl-amide] displayed an IC50 of 0.6 nM. This counts as sub-nanomolar.
Then `N#CCNC(=O)[C@@H]1CC[C@H](S(=O)(=O)c2ccccc2Cl)C1` (racemic) [Example 43, 3-(2-Chloro-benzenesulfonyl)-cyclopentanecarboxylic acid cyanomethyl-amide], with 345 nM.
In the case of `CO[C@@H]1C[C@H](S(=O)(=O)c2ccc(-c3ccc(F)cc3F)cc2C(F)(F)F)C[C@H]1C(=O)NC1(C#N)CC1` (racemic) [Example 62, (1R,2R,4R) and (1S,2S,4S)-4-(2′,4′-Difluoro-3-trifluoromethyl-biphenyl-4-sulfonyl)-2-methoxy-cyclopentanecarboxylic acid (1-cyano-cyclopropyl)-amide] it was 1.4 nM.
In the case of `N#CC1(NC(=O)[C@H]2CC[C@H](S(=O)(=O)c3ccc(N4CCC(F)(F)C4)cc3Cl)C2)CC1` (racemic) [Example 96, (1S,3S) and (1R,3R)-3-[2-chloro-4-(3,3-difluoro-pyrrolidin-1-yl)-benzenesulfonyl]-cyclopentanecarboxylic acid (1-cyano-cyclopropyl)-amide] it was 213 nM.
In turn, `N#CC1(NC(=O)[C@@H]2C[C@@H](S(=O)(=O)c3ccc(N4CCN(CC(F)(F)F)CC4)cc3C(F)(F)F)C[C@H]2OC2CCCC2)CC1` (racemic) [Example 230, (1R,2R,4R) and (1S,2S,4S)-2-Cyclopentyloxy-4-{4-[4-(2,2,2-trifluoro-ethyl)-piperazin-1-yl]-2-trifluoromethyl-benzenesulfonyl}-cyclopentanecarboxylic acid (1-cyano-cyclopropyl)-amide] returned an IC50 of 0.0275 nM.
Then `N#CC1(NC(=O)[C@@H]2C[C@@H](S(=O)(=O)c3ccc(N4CCN(C5CC5)CC4)cc3C(F)(F)F)C[C@H]2C(=O)N2CC(F)(F)C2)CC1` [Example 129, (1R,2R,4R)-4-[4-(4-Cyclopropyl-piperazin-1-yl)-2-trifluoromethyl-benzenesulfonyl]-2-(3,3-difluoro-azetidine-1-carbonyl)-cyclopentanecarboxylic acid (1-cyano-cyclopropyl)-amide], with 0.6 nM; and `N#CC1(NC(=O)[C@@H]2C[C@@H](S(=O)(=O)c3ccccc3)C[C@H]2C(=O)N2CC(O)C2)CC1` [Example 15, (1R,2R,4R)-4-Benzenesulfonyl-2-(3-hydroxy-azetidine-1-carbonyl)-cyclopentanecarboxylic acid (1-cyano-cyclopropyl)-amide], with 7.4 nM.
Take `Cn1cc(-c2ccc(S(=O)(=O)[C@@H]3C[C@@H](C(=O)NC4(C#N)CC4)[C@H](C(=O)N4CCC(F)(F)C4)C3)c(Cl)c2)cn1` [Example 197, (1R,2R,4R)-4-[2-Chloro-4-(1-methyl-1H-pyrazol-4-yl)-benzenesulfonyl]-2-(3,3-difluoro-pyrrolidine-1-carbonyl)-cyclopentanecarboxylic acid (1-cyano-cyclopropyl)-amide]: 0.14 nM corresponded to half-maximal inhibition (IC50).
Then `CN1CCC(C#N)(NC(=O)[C@@H]2C[C@@H](S(=O)(=O)c3ccc(Cl)cc3Cl)C[C@H]2OCc2ccc(Cl)cc2)CC1` (racemic) [Example 234, (1R,2R,4R) and (1S,2S,4S)-2-(4-Chloro-benzyloxy)-4-(2,4-dichloro-benzenesulfonyl)-cyclopentanecarboxylic acid (4-cyano-1-methyl-piperidin-4-yl)-amide], with 19 nM.
For the compound `N#CC1(NC(=O)[C@@H]2C[C@@H](S(=O)(=O)c3ccccc3)C[C@H]2C(=O)N2CCOCC2)CC1` [Example 2, (1R,2R,4R)-4-Benzenesulfonyl-2-(morpholine-4-carbonyl)-cyclopentanecarboxylic acid (1-cyano-cyclopropyl)-amide], the IC50 is 0.7 nM.
Then `CO[C@@H]1C[C@H](S(=O)(=O)c2ccc(Cl)cc2Cl)C[C@H]1C(=O)NCC#N` (racemic) [Example 51, (1R,2R,4R) and (1S,2S,4S)-4-(2,4-Dichloro-benzenesulfonyl)-2-methoxy-cyclopentanecarboxylic acid cyanomethyl-amide], with 20 nM; and `CO[C@@H]1C[C@H](S(=O)(=O)c2ccc(F)cc2Cl)C[C@H]1C(=O)NC1(C#N)CC1` (racemic) [Example 56, (1R,2R,4R) and (1S,2S,4S)-4-(2-Chloro-4-fluoro-benzenesulfonyl)-2-methoxy-cyclopentanecarboxylic acid (1-cyano-cyclopropyl)-amide], with 24.8 nM; and `N#CC1(NC(=O)C2CC(S(=O)(=O)c3ccc(N4CCC(F)(F)C4)cc3C(F)(F)F)CC2C(=O)N2CC(F)(F)C2)CC1` (stereo not shown) [Example 132, 2-(3,3-Difluoro-azetidine-1-carbonyl)-4-[4-(3,3-difluoro-pyrrolidin-1-yl)-2-trifluoromethyl-benzenesulfonyl]-cyclopentanecarboxylic acid (1-cyano-cyclopropyl)-amide], with 1.2 nM.
Then `Cc1cc(Cl)ccc1S(=O)(=O)[C@@H]1C[C@@H](C(=O)NCC#N)[C@H](C(=O)N2CCOCC2)C1` [Example 8, (1R,2R,4R)-4-(4-Chloro-2-methyl-benzenesulfonyl)-2-(morpholine-4-carbonyl)-cyclopentanecarboxylic acid cyanomethyl-amide], with 0.4 nM; and `CCN1CCN(c2ccc(S(=O)(=O)[C@H]3CC[C@H](C(=O)NC4(C#N)CC4)C3)c(Cl)c2)CC1` (racemic) [Example 97, (1S,3S) and (1R,3R)-3-[2-chloro-4-(4-ethyl-piperazin-1-yl)-benzenesulfonyl]-cyclopentanecarboxylic acid (1-cyano-cyclopropyl)-amide], with 157 nM.
In turn, `N#CC1(NC(=O)[C@@H]2C[C@@H](S(=O)(=O)c3ccc(Br)cc3C(F)(F)F)C[C@H]2C(=O)N2CC(F)(F)C2)CC1` [Example 117, (1R,2R,4R)-4-(4-Bromo-2-trifluoromethyl-benzenesulfonyl)-2-(3,3-difluoro-azetidine-1-carbonyl)-cyclopentanecarboxylic acid (1-cyano-cyclopropyl)-amide] came in with an IC50 of 1.1 nM.
In the case of `N#CCNC(=O)[C@@H]1CC(S(=O)(=O)c2ccccc2Cl)C[C@H]1COc1ccc(O)nn1` (mixture of isomers) [Example 107, (1R,2R,4R)-4-(2-Chloro-benzenesulfonyl)-2-(6-hydroxy-pyridazin-3-yloxymethyl)-cyclopentanecarboxylic acid cyanomethylamide and (1R,2R,4S)-4-(2-Chloro-benzenesulfonyl)-2-(6-hydroxy-pyridazin-3-yloxymethyl)-cyclopentanecarboxylic acid cyanomethylamide] it was 20.2 nM; in that of `COC(=O)Cn1cc(-c2ccc(S(=O)(=O)[C@H]3C[C@@H](OC)[C@H](C(=O)NC4(C#N)CC4)C3)c(C(F)(F)F)c2)cn1` (racemic) [Example 179, (4-{4-[(1R,3R,4R) and (1S,3S,4S)-3-(1-Cyano-cyclopropylcarbamoyl)-4-methoxy-cyclopentanesulfonyl]-3-trifluoromethyl-phenyl}-pyrazol-1-yl)-acetic acid methyl ester], 0.3 nM; in that of `CO[C@@H]1C[C@H](S(=O)(=O)c2ccc(-c3ccnn3C)cc2C(F)(F)F)C[C@H]1C(=O)NC1(C#N)CC1` (racemic) [Example 72, (1R,2R,4R) and (1S,2S,4S)-2-Methoxy-4-[4-(1-methyl-1H-pyrazol-5-yl)-2-trifluoromethyl-benzenesulfonyl]-cyclopentanecarboxylic acid (1-cyano-cyclopropyl)-amide], 1.2 nM.
In the case of `N#CC1(NC(=O)[C@@H]2C[C@H](S(=O)(=O)c3ccc(F)cc3Cl)C[C@H]2COc2ccc(F)cc2)CC1` (single isomer, unassigned) [Example 146] it was 2.25 nM; in that of `CO[C@@H]1C[C@H](S(=O)(=O)c2ccc(-c3cc(C)sc3C)cc2C(F)(F)F)C[C@H]1C(=O)NC1(C#N)CC1` (racemic) [Example 87, (1R,2R,4R) and (1S,2S,4S)-4-[4-(2,5-Dimethyl-thiophen-3-yl)-2-trifluoromethyl-benzenesulfonyl]-2-methoxy-cyclopentanecarboxylic acid (1-cyano-cyclopropyl)-amide], 0.2 nM.
Then `Cc1noc(C)c1-c1ccc(S(=O)(=O)[C@H]2C[C@@H](OC(C)C)[C@H](C(=O)NC3(C#N)CC3)C2)c(C(F)(F)F)c1` (racemic) [Example 141, (1R,2R,4R) and (1S,2S,4S)-4-[4-(3,5-Dimethyl-isoxazol-4-yl)-2-trifluoromethyl-benzenesulfonyl]-2-isopropoxy-cyclopentanecarboxylic acid (1-cyano-cyclopropyl)-amide], with 0.2 nM.
`C[C@@H](Oc1ccc(S(=O)(=O)[C@H]2CC[C@H](C(=O)NC3(C#N)CC3)C2)c(Cl)c1)C(F)(F)F` (racemic) [Example 93] came in with an IC50 of 565 nM.
Compound `N#CC1(NC(=O)[C@@H]2C[C@@H](S(=O)(=O)c3ccc(F)cc3Cl)C[C@H]2CO)CC1` [Example 155, (1R,2R,4S)-4-(2-Chloro-4-fluoro-benzenesulfonyl)-2-hydroxymethyl-cyclopentanecarboxylic acid (1-cyano-cyclopropyl)-amide] gave an IC50 of 107 nM.
Then `C[C@H](Oc1ccc(S(=O)(=O)[C@@H]2C[C@@H](C(=O)NC3(C#N)CC3)[C@H](C(=O)N3CCC(F)(F)C3)C2)c(Cl)c1)C(F)(F)F` [Example 190, (1R,2R,4R)-4-[2-Chloro-4-((S)-2,2,2-trifluoro-1-methyl-ethoxy)-benzenesulfonyl]-2-(3,3-difluoro-pyrrolidine-1-carbonyl)-cyclopentanecarboxylic acid (1-cyano-cyclopropyl)-amide], with 0.84 nM.

As usually defined, the IC50 is the midpoint of a concentration-inhibition curve. A lower IC50 goes with higher potency.
